Reference: patent publication US20140296064A1, “PESTICIDAL METHODS USING SUBSTITUTED 3-PYRIDYL THIAZOLE COMPOUNDS AND DERIVATIVES FOR COMBATING ANIMAL PESTS I” (BASF SE, priority 2011, published 2014)

What was measured:
Type in all cases: in vivo
[1] = system: Silverleaf Whitefly (bemisia argentifolii); test: Silverleaf whitefly cotton plant spray test; conditions: 72 h, cotton plants sprayed, whitefly adults, assessed 3 days after treatment, read-out: mortality in comparison with untreated controls
Description: B.5 Silverleaf Whitefly (bemisia argentifolii)
The active compounds were formulated in cyclohexanone as a 10,000 ppm solution supplied in tubes. The tubes were inserted into an automated electrostatic sprayer equipped with an atomizing nozzle and they serve as stock solutions for which lower dilutions are made in 50% acetone: 50% water (v/v). A nonionic surfactant (Kinetic®) was included in the solution at a volume of 0.01% (v/v).
Cotton plants at the cotyledon stage (one plant per pot) were sprayed by an automated electrostatic plant sprayer equipped with an atomizing spray nozzle. The plants were dried in the sprayer fume hood and then removed from the sprayer. Each pot was placed into a plastic cup and about 10 to 12 whitefly adults (approximately 3-5 days old) were introduced. The insects were collected using an aspirator and a nontoxic Tygon® tubing connected to a barrier pipette tip. The tip, containing the collected insects, were then gently inserted into the soil containing the treated plant, allowing insects to crawl out of the tip to reach the foliage for feeding. Cups were covered with a reusable screened lid. Test plants were maintained in a growth room at about 25° C. and about 20-40% relative humidity for 3 days, avoiding direct exposure to fluorescent light (24 hour photoperiod) to prevent trapping of heat inside the cup. Mortality was assessed 3 days after treatment, compared to untreated control plants.

[2] = system: Cowpea Aphid (Aphis craccivora); test: Cowpea aphid potted plant spray test; conditions: potted cowpea plants sprayed, population reduction assessed after 24, 72 and 120 hours, read-out: mortality in comparison with untreated controls
Description: B.4 Cowpea Aphid (Aphis craccivora)
The active compound was dissolved at the desired concentration in a mixture of 1:1 (vol:vol) distilled water: acetone. The test solution was prepared at the day of use.
Potted cowpea plants colonized with approximately 100-150 aphids of various stages were sprayed after the pest population had been recorded. Population reduction was assessed after 24, 72, and 120 hours.

[3] = system: Green Peach Aphid (Myzus persicae); test: Green peach aphid artificial diet test (systemic); conditions: 72 h, in aphid diet under artificial membrane, assessed after 3 days, read-out: mortality in comparison with untreated controls
Description: B.2 Green Peach Aphid (Myzus persicae)
For evaluating control of green peach aphid (Myzus persicae) through systemic means the test unit consisted of 96-well-microtiter plates containing liquid artificial diet under an artificial membrane.
The compounds were formulated using a solution containing 75% v/v water and 25% v/v DMSO. Different concentrations of formulated compounds were pipetted into the aphid diet, using a custom built pipetter, at two replications. After application, 5-8 adult aphids were placed on the artificial membrane inside the microtiter plate wells. The aphids were then allowed to suck on the treated aphid diet and were incubated at about 23±1° C. and about 50±5% relative humidity for 3 days. Aphid mortality and fecundity was then visually assessed.

[4] = system: Vetch aphid (Megoura viciae); test: Vetch aphid leaf disk spray test (contact or systemic); conditions: foliar, 120 h, sprayed broad bean leaf disks, assessed after 5 days, read-out: mortality in comparison with untreated controls
Description: B.1 Vetch aphid (Megoura viciae)
For evaluating control of vetch aphid (Megoura viciae) through contact or systemic means the test unit consisted of 24-well-microtiter plates containing broad bean leaf disks.
The compounds were formulated using a solution containing 75% v/v water and 25% v/v DMSO. Different concentrations of formulated compounds were sprayed onto the leaf disks at 2.5 μl, using a custom built micro atomizer, at two replications. After application, the leaf disks were air-dried and 5-8 adult aphids were placed on the leaf disks inside the microtiter plate wells. The aphids were then allowed to suck on the treated leaf disks and were incubated at about 23±1° C. and about 50±5% relative humidity for 5 days. Aphid mortality and fecundity were then visually assessed.

[5] = system: Cotton aphid (Aphis gossypi); test: Cotton aphid cotyledon dip test; conditions: 120 h, cotton cotyledons dipped, mortality counts after 5 days, read-out: mortality in comparison with untreated controls
Description: B.3 Cotton aphid (Aphis gossypi)
The active compounds were formulated in 50:50 (vol:vol) acetone: water and 100 ppm Kinetica™ surfactant.
Cotton plants at the cotyledon stage (one plant per pot) were infested by placing a heavily infested leaf from the main colony on top of each cotyledon. The aphids were allowed to transfer to the host plant overnight, and the leaf used to transfer the aphids was removed. The cotyledons were dipped in the test solution and allowed to dry. After 5 days, mortality counts were made.

## CN(C)C(=O)c1sc(-c2cccnc2)nc1C(F)(F)F [C.1, 2-Pyridin-3-yl-4-trifluoromethyl-thiazole-5-carboxylic acid dimethylamide]
[1]
  mortality at 500 ppm: ≥ 75%
[2]
  mortality at 500 ppm: ≥ 75%
[3]
  mortality at 500 ppm: ≥ 75%

## CSCCNC(=O)c1sc(-c2cccnc2)nc1C(F)(F)F [C.2, 2-Pyridin-3-yl-4-trifluoromethyl-thiazole-5-carboxylic acid (2-methylsulfanyl-ethyl)amide]
[2]
  mortality at 500 ppm: ≥ 75%
[3]
  mortality at 500 ppm: ≥ 75%
[4]
  mortality at 800 ppm: ≥ 75%

## CCN(CCSC)C(=O)c1sc(-c2cccnc2)nc1C(F)(F)F [C.3, 2-Pyridin-3-yl-4-trifluoromethyl-thiazole-5-carboxylic acid ethyl-(2-methylsulfanyl-ethyl)-amide]
[2]
  mortality at 500 ppm: ≥ 75%
[5]
  mortality at 500 ppm: ≥ 75%

## CCN(CC[S+](C)[O-])C(=O)c1sc(-c2cccnc2)nc1C(F)(F)F (centres unmarked) [C.4, 2-Pyridin-3-yl-4-trifluoromethyl-thiazole-5-carboxylic acid ethyl-(2-methanesulfinyl-ethyl)-amide]
[1]
  mortality at 500 ppm: ≥ 75%
[2]
  mortality at 500 ppm: ≥ 75%

## CCN(CCS(C)(=O)=O)C(=O)c1sc(-c2cccnc2)nc1C(F)(F)F [C.5, 2-Pyridin-3-yl-4-trifluoromethyl-thiazole-5-carboxylic acid ethyl-(2-methanesulfonyl-ethyl)-amide]
[2]
  mortality at 500 ppm: ≥ 75%

## O=C(NC1CSC1)c1sc(-c2cccnc2)nc1C(F)(F)F [C.6, 2-Pyridin-3-yl-4-trifluoromethyl-thiazole-5-carboxylic acid thietan-3-ylamide]
[4]
  mortality at 800 ppm: ≥ 75%

## CCN(C(=O)c1sc(-c2cccnc2)nc1C(F)(F)F)C1CSC1 [C.7, 2-Pyridin-3-yl-4-trifluoromethyl-thiazole-5-carboxylic acid ethyl-thietan-3-yl-amide]
[1]
  mortality at 500 ppm: ≥ 75%
[2]
  mortality at 500 ppm: ≥ 75%

## CCN(C(=O)c1sc(-c2cccnc2)nc1C(F)(F)F)C1C[S+]([O-])C1 (centres unmarked) [C.8, 2-Pyridin-3-yl-4-trifluoromethyl-thiazole-5-carboxylic acid ethyl-(1-oxo-1lambda*4*-thietan-3-yl)-amide]
[1]
  mortality at 500 ppm: ≥ 75%

## CN(C)C(=O)c1sc(-c2cccnc2)nc1Cl [C.11, 4-Chloro-N, N-dimethyl-2-(3-pyridyl)thiazole-5-carboxamide]
[1]
  mortality at 500 ppm: ≥ 75%
[2]
  mortality at 500 ppm: ≥ 75%
[3]
  mortality at 500 ppm: ≥ 75%
[5]
  mortality at 500 ppm: ≥ 75%
[4]
  mortality at 800 ppm: ≥ 75%
